Measurements from patent US10975056B2 (GlaxoSmithKline Intellectual Property Development Limited, priority 2016, dated 2021).
Read-outs that look alike come from different tables or passages of the source. One block for each molecule: values may come before it.

Experiments:
[1] = test system: erythroid progenitor cells; details: cited from earlier work
[2] = test system: patients with sickle cell anemia, sickle cell disease and beta-thalassemia; details: limited set of clinical studies; cited from earlier work
[3] = target: DNMT3B (Homo sapiens (Human), UniProt Q9UBC3); assay: DNMT3B breaklight assay; assay type: biochemical; details: read-out: DNMT3B Breaklight IC50
[4] = test system: erythroid progenitor cells (EPCs); assay: Fetal hemoglobin (HbF) ELISA in day 7 erythroid progenitor cells; assay type: cell-based, human; details: Homo sapiens, Erythroid progenitor cell, HbF ELISA, day 7 EPCs, 5 days; read-out: EPC ELISA (pEC50 category) (converted);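 further: for fetal hemoglobin induction normalized to vehicle-treated cells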
Procedure, shortened: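 Read-out was OD450 from an HRP/TMB sandwich ELISA on lysates, normalized to DMSO-only control wells. Thawed day 7 EPCs from human marrow CD34+ cells had been treated for 5 days at 37° C with Compound A, 22 concentrations […].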

[5] = test system: MV-4-11 AML cells; assay: MV-4-11 cell proliferation assay (CellTiter-Glo, 6 days); assay type: cell-based; details: Homo sapiens, MV4-11, 144 h; 6 days treatment; binning as pXC50; read-out: MV4-11 Anti-proliferative activity (EC50 category)
Procedure: MV-4-11 Anti-Proliferative Activity (pEC50 Category)
Cell proliferation assay. Optimal cell seeding density was determined empirically for MV-4-11 AML cells by examining the growth of a wide range of seeding densities in a 384-well format to identify conditions that permitted maximal and continued proliferation for 6 days. MV-4-11 cells were plated in duplicate plates 24 hours before treatment with a 20-point two-fold dilution series of compound or 0.15% DMSO. Plates were incubated for 6 days at 37° C. in 5% CO2. Cells were then lysed with CellTiter-Glo (CTG) (Promega) and chemiluminescent signal was detected with an appropriate microplate reader. In addition, an untreated plate of cells was harvested at the time of compound addition (T0) to quantify the initial cell density. CTG values obtained after 6 days of treatment were expressed as a percent of the T0 value and plotted against compound concentration. Data were fit with a four parameter equation to generate a concentration response curve from which growth IC50 values were calculated.

[6] = target: DNMT1 (Homo sapiens, UniProt P26358); assay: DNMT1 biochemical activity, breaklight assay and/or SPA assay
[7] = target: human DNMT3a/3l (Homo sapiens (Human), UniProt Q9Y6K1); assay: DNMT3a/3l breaklight assay; assay type: biochemical; details: read-out: DNMT3A Breaklight IC50
Procedure: DNMT3a/3l Breakliqht Assay
DNMT3a/3l breaklight in vitro assays were conducted in a total volume of 50 μl in a standard 384 well format, using black non-binding surface microplates (Corning #3575). […] Negative control wells used 5 μl of DNMT3a/3l and 5 μl of oligonucleotide but also included 200 μM SAH. All reagents were made up in 1× assay buffer (20 mM Tris pH 7.4, 100 mM NaCl, 1.5 mM EDTA, 0.1 mM MgCl2, 1 mM CHAPS and 1 mM DTT). The reaction was incubated at 37° C. for 90 min and then stopped with the addition of 40 μl detection reagent. Detection reagent, made up in 1× Gla assay buffer (20 mM Tris pH 8.0, 80 mM NaCl, 0.75 mM MgCl2, 0.01% Triton X100 and 1 mM DTT) has a final concentration of 200 μM SAH (Sigma #A9384) and 0.0008 units/μl Gla1 restriction endonuclease (Sibenzyme #E494). Following addition of the detection reagent the plate was incubated in the dark at room temperature for 5 hr. Fluorescence intensity was then measured on the PHERAstar FS (BMG Labtech) at Ex 485 nm and Em 520 nm, with a gain of 400 and an integration time of 100 ms.

[8] = binned activity in either the breaklight or the SPA assay, read-out: DNMT1 BioChemical (pIC50 category) (converted)
[9] = binned activity in either the breaklight or the SPA assay

DNMT1, sequence (P26358 whole entry, looked up): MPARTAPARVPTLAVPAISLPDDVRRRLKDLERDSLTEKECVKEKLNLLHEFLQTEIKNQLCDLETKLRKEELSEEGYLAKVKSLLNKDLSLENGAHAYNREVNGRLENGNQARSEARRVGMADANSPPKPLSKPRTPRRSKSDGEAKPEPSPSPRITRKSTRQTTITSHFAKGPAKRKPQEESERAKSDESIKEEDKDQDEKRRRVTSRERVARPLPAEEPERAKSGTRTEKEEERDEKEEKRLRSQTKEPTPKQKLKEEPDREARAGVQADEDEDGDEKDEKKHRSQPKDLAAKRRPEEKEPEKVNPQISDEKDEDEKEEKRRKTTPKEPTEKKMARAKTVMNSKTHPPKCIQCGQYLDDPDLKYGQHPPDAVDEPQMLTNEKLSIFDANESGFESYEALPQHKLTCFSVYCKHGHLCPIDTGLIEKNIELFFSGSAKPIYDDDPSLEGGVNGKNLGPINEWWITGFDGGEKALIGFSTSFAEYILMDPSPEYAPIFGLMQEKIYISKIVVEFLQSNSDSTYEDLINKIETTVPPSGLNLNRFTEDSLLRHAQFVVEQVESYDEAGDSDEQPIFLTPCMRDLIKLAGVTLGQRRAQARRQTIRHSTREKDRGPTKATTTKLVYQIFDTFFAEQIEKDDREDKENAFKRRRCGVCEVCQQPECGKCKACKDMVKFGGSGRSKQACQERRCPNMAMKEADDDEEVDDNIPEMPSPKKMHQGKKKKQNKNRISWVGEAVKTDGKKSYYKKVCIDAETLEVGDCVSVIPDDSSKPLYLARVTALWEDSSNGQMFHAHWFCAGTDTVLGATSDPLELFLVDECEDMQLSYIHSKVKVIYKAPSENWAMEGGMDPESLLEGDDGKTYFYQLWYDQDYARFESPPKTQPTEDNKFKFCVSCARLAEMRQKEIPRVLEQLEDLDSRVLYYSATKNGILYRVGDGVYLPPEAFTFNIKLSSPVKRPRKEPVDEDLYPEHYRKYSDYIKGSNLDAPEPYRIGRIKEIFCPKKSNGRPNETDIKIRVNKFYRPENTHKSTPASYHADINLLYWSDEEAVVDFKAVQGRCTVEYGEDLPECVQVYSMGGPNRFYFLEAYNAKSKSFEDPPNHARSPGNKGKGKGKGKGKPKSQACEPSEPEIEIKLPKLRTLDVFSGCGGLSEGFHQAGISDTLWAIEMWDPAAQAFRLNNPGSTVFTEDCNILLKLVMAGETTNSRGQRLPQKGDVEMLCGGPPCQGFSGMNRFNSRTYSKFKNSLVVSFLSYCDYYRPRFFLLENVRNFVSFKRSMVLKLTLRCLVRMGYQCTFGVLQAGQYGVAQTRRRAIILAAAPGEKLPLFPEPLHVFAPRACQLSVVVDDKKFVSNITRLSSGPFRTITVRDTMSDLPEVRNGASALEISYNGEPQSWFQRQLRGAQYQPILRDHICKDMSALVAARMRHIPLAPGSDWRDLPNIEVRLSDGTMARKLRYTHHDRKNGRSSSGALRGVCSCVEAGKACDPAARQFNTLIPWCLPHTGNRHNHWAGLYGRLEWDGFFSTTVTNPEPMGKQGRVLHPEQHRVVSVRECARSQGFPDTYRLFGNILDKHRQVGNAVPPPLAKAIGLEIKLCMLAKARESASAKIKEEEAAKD
human DNMT3a/3l, sequence (Q9Y6K1 whole entry, looked up): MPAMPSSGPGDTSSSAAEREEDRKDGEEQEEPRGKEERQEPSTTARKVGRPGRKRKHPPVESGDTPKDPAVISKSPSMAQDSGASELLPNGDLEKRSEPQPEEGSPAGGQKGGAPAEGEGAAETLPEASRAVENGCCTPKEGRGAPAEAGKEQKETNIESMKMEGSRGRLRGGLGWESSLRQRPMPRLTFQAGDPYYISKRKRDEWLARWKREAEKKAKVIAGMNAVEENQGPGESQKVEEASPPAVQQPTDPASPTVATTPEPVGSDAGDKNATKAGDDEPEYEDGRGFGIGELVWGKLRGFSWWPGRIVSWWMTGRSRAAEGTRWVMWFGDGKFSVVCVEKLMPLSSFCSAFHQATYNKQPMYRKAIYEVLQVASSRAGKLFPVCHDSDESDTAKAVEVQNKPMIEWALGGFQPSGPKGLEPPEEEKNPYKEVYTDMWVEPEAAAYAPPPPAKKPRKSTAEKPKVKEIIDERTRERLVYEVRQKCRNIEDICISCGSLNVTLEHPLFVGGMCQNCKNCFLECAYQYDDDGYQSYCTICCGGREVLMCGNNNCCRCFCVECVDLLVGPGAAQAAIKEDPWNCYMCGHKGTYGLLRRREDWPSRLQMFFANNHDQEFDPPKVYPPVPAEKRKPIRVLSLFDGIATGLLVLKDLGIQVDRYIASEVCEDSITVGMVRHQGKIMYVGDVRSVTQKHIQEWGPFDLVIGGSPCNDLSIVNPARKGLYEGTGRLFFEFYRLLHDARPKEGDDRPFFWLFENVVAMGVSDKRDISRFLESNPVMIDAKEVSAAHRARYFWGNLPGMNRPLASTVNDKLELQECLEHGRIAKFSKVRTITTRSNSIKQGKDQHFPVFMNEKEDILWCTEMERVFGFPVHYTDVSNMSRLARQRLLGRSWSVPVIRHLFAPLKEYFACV
human DNMT3a/3l, sequence (Q9UJW3 whole entry partner, looked up): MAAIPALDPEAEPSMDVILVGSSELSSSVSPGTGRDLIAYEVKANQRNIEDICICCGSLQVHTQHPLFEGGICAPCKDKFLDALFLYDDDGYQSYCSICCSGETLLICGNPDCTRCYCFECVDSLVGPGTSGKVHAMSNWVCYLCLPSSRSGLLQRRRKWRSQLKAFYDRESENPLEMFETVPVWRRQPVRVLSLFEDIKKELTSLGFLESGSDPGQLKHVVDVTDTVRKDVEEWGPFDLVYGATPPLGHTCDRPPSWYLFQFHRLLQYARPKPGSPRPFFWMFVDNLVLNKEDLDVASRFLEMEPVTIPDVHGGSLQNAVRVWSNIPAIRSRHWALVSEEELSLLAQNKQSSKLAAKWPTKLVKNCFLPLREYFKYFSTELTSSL

SMILES: Nc1ncn([C@H]2C[C@H](O)[C@@H](CO)O2)c(=O)n1 [5-aza-2′-deoxycytidine (decitabine), 5-aza-2′-deoxycytidine]
induction of fetal hemoglobin [1]: known inducers of fetal hemoglobin | fetal hemoglobin in patients [2]: caused increases in fetal hemoglobin

SMILES: Nc1ncn([C@@H]2O[C@H](CO)[C@@H](O)[C@H]2O)c(=O)n1 [5-azacytidine]
induction of fetal hemoglobin [1]: known inducers of fetal hemoglobin | fetal hemoglobin in patients [2]: caused increases in fetal hemoglobin

IC50 [3]: > 500000 nM | EC50 [4]: < 316 nM | EC50 [5]: 316 to 1000 nM
SMILES: CCc1c(C#N)c(S[C@@H](C(N)=O)c2ccccc2)nc(N(C)C)c1C#N [Example 64, (R)-2-((3,5-dicyano-6-(dimethylamino)-4-ethylpyridin-2-yl)thio)-2-phenylacetamide]

IC50 [6, 8]: 316 to 1000 nM | IC50 ([6]; breaklight assay and/or SPA assay, repeated experimental runs, read-out: average pIC50 against DNMT1 (converted)): 316 to 1000 nM | IC50 [7]: > 500000 nM | IC50 [3]: > 500000 nM | EC50 [5]: 1000 to 31600 nM
SMILES: N#Cc1c(SC(C(N)=O)c2ccccc2)nc(N2CCOCC2)c(C#N)c1C1CC1 (stereo not drawn) [Example 130, 2-[(3,5-Dicyano-4-cyclopropyl-6-morpholino-2-pyridyl)sulfanyl]-2-phenyl-acetamide]

DNMT1 BioChemical (pIC50 category) [6, 9]: D (Category D: ≥6.5) | EC50 [4]: < 316 nM | EC50 [5]: < 316 nM
SMILES: CCc1c(C#N)c(SC(C(N)=O)c2ccccc2)nc(N(C)CC(N)=O)c1C#N (stereo not drawn) [Example 145, 2-((6-((2-Amino-2-oxoethyl)(methyl)amino)-3,5-dicyano-4-ethylpyridin-2-yl)thio)-2-phenylacetamide]

IC50 [6, 8]: 316 to 1000 nM | EC50 [4]: 316 to 1000 nM | EC50 [5]: 1000 to 31600 nM
SMILES: N#Cc1c(SC(C(N)=O)c2ccccc2)nc(N2CCCC(O)C2)c(C#N)c1C1CC1 (stereo not drawn) [Example 164, 2-(3,5-Dicyano-4-cyclopropyl-6-(3-hydroxypiperidin-1-yl)pyridin-2-ylthio)-2-phenylacetamide]

DNMT1 BioChemical (pIC50 category) [6, 9]: D (Category D: ≥6.5) | EC50 [4]: < 316 nM | EC50 [5]: 316 to 1000 nM
SMILES: CCc1c(C#N)c(SC(C(N)=O)c2ccccc2)nc(N2CCCN(CCO)CC2)c1C#N (stereo not drawn) [Example 318, 2-((3,5-Dicyano-4-ethyl-6-(4-(2-hydroxyethyl)-1,4-diazepan-1-yl)pyridin-2-yl)thio)-2-phenylacetamide]
